Patent publication US20240156902A1, “METHODS OF TREATING NEURODEGENERATIVE DISORDERS WITH INTRANASAL NF-KAPPAB ESSENTIAL MODIFIER (NEMO)-BINDING DOMAIN (NBD) PEPTIDE” (Rush University Medical Center, priority 2021, published 2024)
Where two headings read alike, the source gives them in different places.

How the values were obtained:
[1] = tested on: NF-κB; assay: NF-κB activation in nigra of PFF-seeded A53T mice (acetylated p65 in microglia); type: in vivo, mouse; conditions: intranasal 0.1 mg/kg/d for 1 month
Experimental: (§1) Following 2 months of surgery, animals received wild type NBD (wtNBD) at a dose of 0.1 mg/kg body weight/day intranasally. After 1 month of wtNBD treatment, behavioral analyses were performed followed by immunohistochemistry and different biochemical experiments.
FIG. 2A and FIG. 2B show the results following intranasal administration of wtNBD peptide inhibiting NF-κB activation in the nigra of PFF-seeded mouse model of Lewy body diseases. A53T transgenic mice were seeded with PFF bilaterally and following 2 months of brain surgery, animals were given intranasal administration of 0.1 mg/kg wtNBD peptide daily. Activation of NF-κB in nigra was monitored by evaluating the level of acetylated (K310) p65 in Ibal+ve microglia in different groups of mice. Marked up-regulation of microglial acetylated p65 level in the SN of PFF-seeded mice was found compared to the PBS-injected mice (FIG. 2A and FIG. 2B). […] Statistical significance was determined by one-way ANOVA followed by Tukey's multiple comparison tests. *p<0.05, ***p<0.001 indicate significance compared to respective groups. Values are given as mean±SEM (n=4 per group). […]
(§2) Following 1 month of wtNBD administration, NF-κB activation in substantia nigra (SN) and spreading of α-syn in both SN and motor cortex were monitored. […]

[2] = tested on: α-syn; assay: α-syn spreading from striatum to nigra and motor cortex in PFF-seeded A53T mice (pSyn129 immunostaining, α-syn immunoblot); type: in vivo, mouse; conditions: intranasal 0.1 mg/kg/d for 1 month
Experimental: as §1
Propagation of α-syn in PFF-seeded A53T mouse brain was monitored in SN by pSyn129 immunostaining and relative intensity measurement (FIG. 3A, FIG. 3B) and also by immunoblotting total α-syn in Triton X-100 soluble and insoluble fractions (FIG. 3C, FIG. 3D). The ratio of α-syn to actin is shown in the diagrams (FIG. 3E, FIG. 3F). Level of pSyn129 in motor cortex was assessed by immunohistochemistry (FIG. 3G, FIG. 3H). Two sections from each brain were used for immunostaining and pSyn129 specific intensity was analysed by Fiji. One-way ANOVA followed by Tukey's multiple comparison tests was conducted for statistical analyses. **p<0.01, ***p<0.001 indicate significance compared to respective groups. Values are given as mean±SEM (n=4 animals per group).
(§3) The wtNBD peptide (SEQ ID NO: 4) was solubilized in normal saline in such a way so that each mouse receives 0.1 mg/kg of body weight NBD peptide in 2.5 μl of saline. […]
as §2

[3] = tested on: dopaminergic neurons; assay: Parkinsonian pathology in PFF-seeded A53T mice (TH immunohistochemistry, TH immunoblot, striatal neurotransmitters); type: in vivo, mouse; conditions: intranasal 0.1 mg/kg/d for 1 month
Experimental: (§4) FIG. 4A-L depicts the results following intranasal administration of wtNBD peptide reducing Parkinsonian pathology in PFF-seeded mouse model of Lewy body diseases. PFF-seeded A53T animals were given intranasal administration of 0.1 mg/kg wtNBD peptide daily for one month Parkinsonian pathology was evaluated by TH immunohistochemistry of nigral sections (FIG. 4A), immunoblotting of total TH level in SN (FIG. 4B and FIG. 4C), assessing striatal level of dopamine (DA), and its metabolites 3,4-dihydroxyphenyl acetate (DOPAC), homovanillic acid (HVA) (FIG. 4D-F). Behavioral analyses of animals were performed by open field test (FIG. 4G), where movement parameters such as distance (FIG. 4H), velocity (FIG. 4I), cumulative duration (FIG. 4J) and rearings (FIG. 4K) were recorded. Feet movement was analysed by rotarod test (FIG. 4L). Statistical significance was determined by one-way ANOVA followed by Tukey's multiple comparison tests. *p<0.05, **p<0.01, ***p<0.001 indicate significance compared to respective groups. Values are given as mean±SEM (n=4 per group).
The wtNBD peptide (SEQ ID NO: 4) was solubilized in normal saline in such a way so that each mouse receives 0.1 mg/kg of body weight NBD peptide in 2.5 μl of saline. Then 2.5 μl of wtNBD solution was administered in mice through each nostril every day for a total of 30 days. Mice were hold in supine condition while administering wtNBD solution. See Rangasamy et al. “Selective disruption of TLR2-MyD88 interaction inhibits inflammation and attenuates Alzheimer's pathology” (2018) J Clin Invest 128, 4297-4312. Intranasal treatment was started for preformed α-syn fibril (PFF) or PBS injected A53T animals at the age of 5 months (2 months following the brain surgery) for the next 30 days. Aged A53T animals (8 months old) were also treated with wtNBD peptides for 1 month followed by behavioural tests and other experiments at the age of 9 months.
Next, the effect of intranasal wtNBD on PFF-induced Parkinsonian pathologies was monitored. […] Locomotor deficit was also evident by rotarod analysis (FIG. 4L).

[4] = tested on: PFF-seeded A53T transgenic mice; assay: Locomotor activities of PFF-seeded A53T mice (open field test, rotarod); type: in vivo, mouse; conditions: intranasal 0.1 mg/kg/d for 1 month
Experimental: as §4, §3
Next, the effect of intranasal wtNBD on PFF-induced Parkinsonian pathologies was monitored. […]

[5] = in vivo; cited from earlier work
[6] = tested on: NF-κB; conditions: cultured brain cells; cited from earlier work
[7] = tested on: NF-κB; conditions: in vivo in the brain; cited from earlier work

Substance | microglial acetylated (K310) p65 level in the SN [1] | level of pSyn129 in nigral neurons (relative optical density in SN) ([2]; PFF-seeded A53T mice) | accumulation of pSyn129 in cortical neurons (motor cortex) ([2]; compared to saline-treated PFF-seeded mice) | nigral TH neurons [3] | nigral TH protein level [3] | striatal DA level [3] | movement deficits (open field distance, velocity, cumulative duration, rearing; rotarod) [4] | entry into the brain [5] | block of the function of NF-κB [6] | block of the function of NF-κB [7]
DRQIKIWFQNRRMKWKKLDWSWL (DRQIKWFQNRRMKWKKLDWSWL) [wtNBD] | significantly decreased | drastically reduced | reduced accumulation | significantly protected | significantly protected | significantly protected | significantly inhibited | enters into the brain |  | 
LDWSWL [truncated hexapeptide of the wtNBD] |  |  |  |  |  |  |  |  | sufficient to block | sufficient to block
